The record followed here is patent publication US6872750B2, “Modulating angiogenesis” (Regents of the University of California, priority 2000, dated 2005).

The test system of one experiment is Kuz. As to the kind of experiment: Inhibition of angiogenesis by Kuz inhibitors in several model systems. The method, then: The presence of Kuz and its activity is assayed by ELISA and Kuz-specific protease activity prior to or subsequent to the measure of angiogenesis.
For the next experiment, the system named is HUVEC. As to the kind of experiment: HUVEC formation of vascular-like structures on Matrigel. The conditions noted are these: HUVEC on growth factor-reduced Matrigel, 8-12 h. The class given is cell-based, human. The method, then: The formation of vascular-like structures by HUVEC is assessed on the basement membrane matrix preparation, growth factor-reduced Matrigel (Becton Dickinson, Bedford, Mass.), as described in Kureishi Y, et al. Nat Med 2000 September;6(9):1004-10. Two-well chamber slides are coated with Matrigel (10 mg/ml) according to the manufacturer's instructions. HUVEC are seeded on coated plates at 4-5×10^4 cells/well in EBM and incubated at 37° C. for 60 minutes. The media are supplemented with the agents (metalloprotease domain of human Kuz, Kuz inhibitors, Kuz antibodies, VEGF, etc.) and incubated at 37° C. for 8-12 h. Tube formation image is observed using an inverted phase contrast microscope (Nikon Diaphot). Images are captured with a video graphic system (DEI-750 CE Digital Output Camera, Optronics, Goleta, Calif.). The degree of tube formation is quantified by measuring the length of tubes in random fields from each well using the National Institutes of Health (NIH) Image Program.

With `CNC(=O)[C@H](Cc1c[nH]c2ccccc12)NC(=O)[C@@H](CC(=O)NO)CC(C)C` [GM6001, NHOHCOCH2CH(1-Bu)CO-Trp-NHMe], the inhibition of angiogenesis result with Kuz is “inhibit angiogenesis”. Still for that read-out and setting: to `CC(C)CC(CC(=O)NO)C(=O)N[C@@H](C)C(=O)NCCN` (stereo partly drawn) [IC-3, N-{D,L-[2-(hydroxyaminocarbonyl)methyl]-4-methyl-pentanoyl}-L-alanine, 2-aminoethyl amide] belongs “inhibit angiogenesis”; to “TIMP-1: natural MMP inhibitor, tissue inhibitor of MMPs”, “inhibit angiogenesis”. VEGF: the “formation of capillary-like tubes” value with HUVEC was “promotes the formation of capillary-like tubes”.
